The values below come from ChEMBL document CHEMBL5649166, “RIP3 induces apoptosis independent of pronecrotic kinase activity” (Mol Cell, 2014).

In experiment [1] the target is Macrophage-stimulating protein receptor (Homo sapiens) (UniProt Q04912). The experiment is described as follows: Inhibition of human RON/MST1R using KKSRGDYMTMQIG as substrate at 1 uM in presence of 32P-ATP by Hotspot assay relative to control.
For experiment [2], the target named is T1, cGMP-dependent protein kinase 1 (Homo sapiens) (UniProt Q13976).
T1 sequence (whole entry): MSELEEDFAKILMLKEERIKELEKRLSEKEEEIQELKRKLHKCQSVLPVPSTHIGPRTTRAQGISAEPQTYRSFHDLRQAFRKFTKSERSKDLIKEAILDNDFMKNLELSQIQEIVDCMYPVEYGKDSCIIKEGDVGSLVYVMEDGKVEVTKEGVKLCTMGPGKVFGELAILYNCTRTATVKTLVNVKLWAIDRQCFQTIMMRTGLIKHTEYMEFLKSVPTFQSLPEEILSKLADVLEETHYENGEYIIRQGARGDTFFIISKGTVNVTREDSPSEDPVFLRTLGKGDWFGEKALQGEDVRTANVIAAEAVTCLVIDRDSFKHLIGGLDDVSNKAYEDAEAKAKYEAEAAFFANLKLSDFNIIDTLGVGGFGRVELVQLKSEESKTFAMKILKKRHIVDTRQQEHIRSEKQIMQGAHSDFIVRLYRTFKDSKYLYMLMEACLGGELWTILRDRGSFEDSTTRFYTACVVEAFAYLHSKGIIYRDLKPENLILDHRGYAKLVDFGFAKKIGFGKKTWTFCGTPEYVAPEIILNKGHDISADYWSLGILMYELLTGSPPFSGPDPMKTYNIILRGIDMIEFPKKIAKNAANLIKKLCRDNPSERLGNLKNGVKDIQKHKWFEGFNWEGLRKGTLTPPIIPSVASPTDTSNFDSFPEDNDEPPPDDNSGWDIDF
The experiment is described as follows: Inhibition of human PKG1b using LRRASLG as substrate at 1 uM in presence of 32P-ATP by Hotspot assay relative to control; values are per cent of control.

The target in experiment [3] is Fibroblast growth factor receptor 1 (Homo sapiens) (UniProt P11362). Briefly: Inhibition of human FGFR1 using poly[Glu:Tyr] (4:1) as substrate at 1 uM in presence of 32P-ATP by Hotspot assay relative to control; values are per cent of control.
Sequence of Fibroblast growth factor receptor 1 (Homo sapiens) (P11362 22-822 limits assumed): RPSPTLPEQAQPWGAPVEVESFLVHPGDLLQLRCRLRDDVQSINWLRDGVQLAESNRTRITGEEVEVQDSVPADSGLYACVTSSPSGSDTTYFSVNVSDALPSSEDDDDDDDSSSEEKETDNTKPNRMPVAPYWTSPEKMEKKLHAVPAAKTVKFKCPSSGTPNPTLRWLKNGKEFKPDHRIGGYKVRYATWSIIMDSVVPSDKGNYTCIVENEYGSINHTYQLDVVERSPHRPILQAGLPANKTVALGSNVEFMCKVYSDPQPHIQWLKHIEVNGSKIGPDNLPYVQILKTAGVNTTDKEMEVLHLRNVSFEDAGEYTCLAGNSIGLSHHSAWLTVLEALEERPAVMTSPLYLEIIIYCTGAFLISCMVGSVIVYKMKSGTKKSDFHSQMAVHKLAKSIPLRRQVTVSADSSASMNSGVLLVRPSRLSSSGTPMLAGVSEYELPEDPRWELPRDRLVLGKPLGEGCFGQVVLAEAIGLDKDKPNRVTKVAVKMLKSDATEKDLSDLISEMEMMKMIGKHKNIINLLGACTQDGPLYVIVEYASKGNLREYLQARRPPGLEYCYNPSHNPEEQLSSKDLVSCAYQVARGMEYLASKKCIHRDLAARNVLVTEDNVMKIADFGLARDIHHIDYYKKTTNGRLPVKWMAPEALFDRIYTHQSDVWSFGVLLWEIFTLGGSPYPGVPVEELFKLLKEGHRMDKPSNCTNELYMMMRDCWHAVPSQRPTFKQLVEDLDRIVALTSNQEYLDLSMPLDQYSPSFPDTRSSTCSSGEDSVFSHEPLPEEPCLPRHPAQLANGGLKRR
The target of experiment [4] is Fibroblast growth factor receptor 4 (Homo sapiens) (UniProt P22455). The experiment is described as follows: Inhibition of human FGFR4 using poly[Glu:Tyr] (4:1) as substrate at 1 uM in presence of 32P-ATP by Hotspot assay relative to control; values are per cent of control.
Sequence of Fibroblast growth factor receptor 4 (Homo sapiens) (P22455 22-802 limits assumed): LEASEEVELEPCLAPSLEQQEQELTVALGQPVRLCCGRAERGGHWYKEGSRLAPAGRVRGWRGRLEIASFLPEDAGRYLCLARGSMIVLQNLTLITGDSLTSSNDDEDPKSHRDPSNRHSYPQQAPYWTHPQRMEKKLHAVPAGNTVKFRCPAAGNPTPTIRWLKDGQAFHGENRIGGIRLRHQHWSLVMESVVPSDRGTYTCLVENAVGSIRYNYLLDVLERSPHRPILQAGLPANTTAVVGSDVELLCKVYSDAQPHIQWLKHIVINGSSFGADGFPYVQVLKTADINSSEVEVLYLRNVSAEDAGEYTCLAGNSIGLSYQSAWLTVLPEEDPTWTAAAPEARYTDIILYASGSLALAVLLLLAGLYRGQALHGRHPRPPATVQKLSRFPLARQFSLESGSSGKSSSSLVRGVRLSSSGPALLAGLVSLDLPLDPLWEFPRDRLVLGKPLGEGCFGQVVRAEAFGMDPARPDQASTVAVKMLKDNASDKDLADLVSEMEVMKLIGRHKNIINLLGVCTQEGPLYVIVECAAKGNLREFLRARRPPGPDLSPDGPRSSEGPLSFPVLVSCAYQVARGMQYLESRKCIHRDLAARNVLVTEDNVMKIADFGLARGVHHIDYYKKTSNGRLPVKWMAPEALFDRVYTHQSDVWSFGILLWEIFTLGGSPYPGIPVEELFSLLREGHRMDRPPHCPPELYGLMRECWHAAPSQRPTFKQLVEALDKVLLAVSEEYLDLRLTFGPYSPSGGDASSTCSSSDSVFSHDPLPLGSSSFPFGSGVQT
For experiment [5], the target named is T2, Megakaryocyte-associated tyrosine-protein kinase (Homo sapiens) (UniProt P42679).
T2 sequence (whole entry): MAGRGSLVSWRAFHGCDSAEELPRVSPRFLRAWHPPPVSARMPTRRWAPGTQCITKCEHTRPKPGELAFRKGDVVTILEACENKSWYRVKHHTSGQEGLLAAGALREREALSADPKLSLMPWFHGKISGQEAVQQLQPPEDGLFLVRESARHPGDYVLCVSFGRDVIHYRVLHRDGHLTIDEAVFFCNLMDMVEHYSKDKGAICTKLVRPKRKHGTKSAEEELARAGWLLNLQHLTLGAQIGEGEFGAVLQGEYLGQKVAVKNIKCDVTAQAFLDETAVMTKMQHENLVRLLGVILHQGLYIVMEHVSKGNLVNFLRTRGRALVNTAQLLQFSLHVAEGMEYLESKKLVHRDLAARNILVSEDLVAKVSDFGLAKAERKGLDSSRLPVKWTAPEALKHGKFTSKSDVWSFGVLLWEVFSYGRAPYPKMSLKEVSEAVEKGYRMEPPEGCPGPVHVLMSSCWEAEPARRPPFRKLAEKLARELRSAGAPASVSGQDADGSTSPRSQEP
The experiment is described as follows: Inhibition of human CTK/MATK using poly[Glu:Tyr] (4:1) as substrate at 1 uM in presence of 32P-ATP by Hotspot assay relative to control; values are per cent of control.

The target in experiment [6] is T3, Serine/threonine-protein kinase STK11 (Homo sapiens) (UniProt Q15831).
T3 sequence (whole entry): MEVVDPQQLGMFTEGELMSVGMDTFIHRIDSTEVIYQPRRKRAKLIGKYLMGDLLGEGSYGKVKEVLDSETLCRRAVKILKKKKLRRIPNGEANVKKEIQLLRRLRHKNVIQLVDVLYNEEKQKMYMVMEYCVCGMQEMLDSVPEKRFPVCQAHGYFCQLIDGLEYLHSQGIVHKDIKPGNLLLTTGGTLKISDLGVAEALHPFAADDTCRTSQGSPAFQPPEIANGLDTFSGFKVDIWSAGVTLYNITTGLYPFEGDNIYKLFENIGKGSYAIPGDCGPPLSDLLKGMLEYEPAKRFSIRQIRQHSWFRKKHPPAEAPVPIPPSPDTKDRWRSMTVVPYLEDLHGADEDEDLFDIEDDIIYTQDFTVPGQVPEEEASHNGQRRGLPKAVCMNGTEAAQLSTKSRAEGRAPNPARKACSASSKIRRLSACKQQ
The experiment is described as follows: Inhibition of human LKB1 using LSNLYHQGKFLQTFCGSPLYRRR as substrate at 1 uM in presence of 32P-ATP by Hotspot assay relative to control; values are per cent of control.

Experiment [7] deals with Tyrosine-protein kinase Yes (Homo sapiens) (UniProt P07947). Briefly: Inhibition of human YES/YES1 using poly[Glu:Tyr] (4:1) as substrate at 1 uM in presence of 32P-ATP by Hotspot assay relative to control; values are per cent of control.
Sequence of Tyrosine-protein kinase Yes (Homo sapiens) (P07947 2-543 limits assumed): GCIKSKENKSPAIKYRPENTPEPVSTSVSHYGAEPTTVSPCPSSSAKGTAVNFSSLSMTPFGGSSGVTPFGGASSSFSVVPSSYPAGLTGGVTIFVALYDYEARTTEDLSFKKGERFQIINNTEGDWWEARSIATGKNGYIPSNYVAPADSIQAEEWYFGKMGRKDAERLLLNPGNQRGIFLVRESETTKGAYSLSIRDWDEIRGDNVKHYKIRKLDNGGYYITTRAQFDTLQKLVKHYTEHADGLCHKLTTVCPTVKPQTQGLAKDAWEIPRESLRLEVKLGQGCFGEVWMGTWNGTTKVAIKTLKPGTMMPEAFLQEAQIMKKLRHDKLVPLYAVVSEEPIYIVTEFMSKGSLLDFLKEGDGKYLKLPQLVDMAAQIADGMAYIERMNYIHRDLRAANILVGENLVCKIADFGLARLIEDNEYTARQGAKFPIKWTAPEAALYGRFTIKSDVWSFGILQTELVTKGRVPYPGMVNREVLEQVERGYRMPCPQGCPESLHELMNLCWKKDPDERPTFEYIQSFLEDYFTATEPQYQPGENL

Sequence of Macrophage-stimulating protein receptor (Homo sapiens) (Q04912 25-304 limits assumed): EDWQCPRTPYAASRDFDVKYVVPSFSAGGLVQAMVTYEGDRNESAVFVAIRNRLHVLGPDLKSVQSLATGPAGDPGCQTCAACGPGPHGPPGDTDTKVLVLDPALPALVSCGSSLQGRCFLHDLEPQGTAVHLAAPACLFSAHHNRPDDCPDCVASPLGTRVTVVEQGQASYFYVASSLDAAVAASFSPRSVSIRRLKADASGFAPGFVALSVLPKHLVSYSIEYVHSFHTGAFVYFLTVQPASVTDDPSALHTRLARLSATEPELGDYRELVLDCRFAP
Sequence of Macrophage-stimulating protein receptor (Homo sapiens) (Q04912 310-1400 limits assumed): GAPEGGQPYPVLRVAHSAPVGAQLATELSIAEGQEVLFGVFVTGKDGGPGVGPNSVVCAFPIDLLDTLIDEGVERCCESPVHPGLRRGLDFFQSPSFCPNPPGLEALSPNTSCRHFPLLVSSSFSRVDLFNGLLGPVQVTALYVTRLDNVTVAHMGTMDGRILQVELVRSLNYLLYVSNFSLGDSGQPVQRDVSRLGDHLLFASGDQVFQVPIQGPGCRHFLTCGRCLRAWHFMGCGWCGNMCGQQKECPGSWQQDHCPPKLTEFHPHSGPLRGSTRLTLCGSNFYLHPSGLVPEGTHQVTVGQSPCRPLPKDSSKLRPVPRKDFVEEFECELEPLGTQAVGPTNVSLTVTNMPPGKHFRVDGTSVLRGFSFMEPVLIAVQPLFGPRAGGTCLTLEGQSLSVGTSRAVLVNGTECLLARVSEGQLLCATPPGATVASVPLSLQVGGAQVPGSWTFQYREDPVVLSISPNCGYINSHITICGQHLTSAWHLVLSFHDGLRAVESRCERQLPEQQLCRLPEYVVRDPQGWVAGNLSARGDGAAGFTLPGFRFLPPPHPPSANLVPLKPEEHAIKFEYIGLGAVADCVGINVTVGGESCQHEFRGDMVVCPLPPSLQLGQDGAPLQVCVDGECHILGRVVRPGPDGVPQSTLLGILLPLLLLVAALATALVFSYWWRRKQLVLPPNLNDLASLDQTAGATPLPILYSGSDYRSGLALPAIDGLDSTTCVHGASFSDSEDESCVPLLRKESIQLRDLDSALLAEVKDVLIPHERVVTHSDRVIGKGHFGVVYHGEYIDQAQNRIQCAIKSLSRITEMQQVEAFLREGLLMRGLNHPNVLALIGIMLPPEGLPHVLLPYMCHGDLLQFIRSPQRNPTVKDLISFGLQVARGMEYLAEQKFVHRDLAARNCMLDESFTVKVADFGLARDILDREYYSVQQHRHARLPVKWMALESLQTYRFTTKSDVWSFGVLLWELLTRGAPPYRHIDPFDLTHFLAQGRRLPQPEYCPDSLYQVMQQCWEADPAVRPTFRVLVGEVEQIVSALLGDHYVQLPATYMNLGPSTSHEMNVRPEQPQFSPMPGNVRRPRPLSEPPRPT

For `CNC(=O)c1ccc2c(c1)ncn2-c1ccc(CC(=O)OC(C)(C)C)cc1`, the inhibition in experiment [1] amounted to 97.8%. The residual activity in experiment [2] worked out at 96.1%; in experiment [3] it was 56.4%; in experiment [4] it was 93.4%; in experiment [5], 93.7%; in experiment [6], 99%; in experiment [7], 39.6%.

On to `Cc1cc(-c2cnc(N)c3c(-c4ccc5scnc5c4)csc23)n(C)n1`, for which the inhibition in experiment [1] came out at 91.3%. The residual activity in experiment [2] worked out at 85%; in experiment [3], 59.1%; in experiment [4], 47.4%; in experiment [5] it was 79.2%; in experiment [6] it was 96.8%; in experiment [7] it was 17%.

With `CC(C)S(=O)(=O)c1ccc2nccc(Nc3ccc4scnc4c3)c2c1`, in experiment [1], the inhibition was found to be 56.6%. For the same compound, the residual activity was found to be 97.5% in experiment [2]; 63.3% in experiment [3]; 77.6% in experiment [4]; 98.5% in experiment [5]; 59% in experiment [6]; 20.1% in experiment [7].
